Experimental data: patent US7714135B2, “Tetrahydropyridothiophenes for the treatment of proliferative diseases such as cancer” (4SC AG, priority 2005, dated 2010)

What was measured:
[1] = test system: RKO colon adenocarcinoma cells (RKOp27) arrested by the expression of ectopic p27Kip1; assay: Alamar Blue cell viability assay on RKOp27 cells arrested by Ponasterone A-induced p27Kip1 expression (cell cycle specific mode of action); assay type: cell-based; details: Homo sapiens, RKOp27 subclone induced with 10 μM Ponasterone A, 72 hours incubation, read-out: IC50 RKO p27 induced (arrested)
Description: To determine the cell cycle specific mode of action, subclones of RKO colon adenocarcinoma cells (RKOp27 or RKOp21 as described by Schmidt et al. in Oncogene 19, 2423-2429; 2000) are seeded into 96 well flat bottom plates at a density of 16000 cells per well in a volume of 50 μl per well in DMEM growth medium with 10% FCS containing 10 μM Ponasterone A. 24 hours after seeding the 50 μl each of the compound dilutions in DMEM medium are added into each well of the 96 Well plate. Each compound dilution is tested as quadruplicates. Wells containing untreated control cells are filled with 50 μl DMEM medium containing 1% DMSO. The cells are then incubated with the substances for 72 hours at 37° C. in a humidified atmosphere containing 5% carbon dioxide. To determine the viability of the cells, 10 μl of an Alamar Blue solution (Biosource) are added and the fluorescence was measured at an extinction of 544 nm and an emission of 590 nm. For the calculation of the cell viability the emission value from untreated cells is set as 100% viability and the emission rates of treated cells are set in relation to the values of untreated cells. Viabilities are expressed as % values. Viability is compared of proliferating cells grown in the absence of the inducer Ponasterone A, versus viability of cells arrested by the expression of ectopic p27Kip1 induced by Ponasterone A.

[2] = test system: RKO (RKOp27) human colon adenocarcinoma cells; assay: Alamar Blue cell viability assay, anti-proliferative/cytotoxic activity on proliferating (uninduced) RKOp27 cells; assay type: cell-based; details: RKOp27 subclone without inducer, 72 hours incubation, read-out: IC50 RKO p27 uninduced (proliferating)
Description: The anti-proliferative/cytotoxic activity of the compounds described herein, can be tested on subclones of RKO (RKOp27) human colon adenocarcinoma cells (Schmidt et al., Oncogene 19, 2423-2429; 2000) using the Alamar Blue cell viability assay (described in O'Brien et al. Eur J Biochem 267, 5421-5426, 2000). The compounds are dissolved as 20 mM solutions in dimethylsulfoxide (DMSO) and subsequently diluted in semi-logarithmic steps. DMSO dilutions are further diluted 1:100 into Dulbecco's modified Eagle's medium (DMEM) containing 10% fetal calf serum to a final concentration twice as much as the final concentration in the test. RKO subclones are seeded into 96 well flat bottom plates at a density of 4000 cells per well in a volume of 50 μl per well. 24 hours after seeding the 50 μl each of the compound dilutions in DMEM medium are added into each well of the 96 Well plate. Each compound dilution is tested as quadruplicates. Wells containing untreated control cells are filled with 50 μl DMEM medium containing 1% DMSO. The cells are then incubated with the substances for 72 hours at 37° C. in a humidified atmosphere containing 5% carbon dioxide. To determine the viability of the cells, 10 μl of an Alamar Blue solution (Biosource) are added and the fluorescence is measured at an extinction of 544 nm and an emission of 590 nm. For the calculation of the cell viability the emission value from untreated cells is set as 100% viability and the emission rates of treated cells are set in relation to the values of untreated cells. Viabilities are expressed as % values.
The corresponding IC50 values of the compounds for anti-proliferative/cytotoxic activity are determined from the concentration-effect curves.
Representative IC50 values for anti-proliferation/cytotoxicity determined in the mentioned assay follow from the following table A, in which the numbers of the compound correspond to the numbers of the examples.

Structure (SMILES)	IC50 [1] [µM]	IC50 [2] [µM]
CCOC(=O)N1CCc2c(sc(NC(=O)CC(C)c3ccccc3)c2C#N)C1 (racemic) [Example 4, 3-Cyano-2-((RS)-3-phenyl-butanoylamino)-4,7-dihydro-5H-thieno[2,3-c]pyridine-6-carboxylic acid ethyl ester]	> 100	≤ 0.3
CCOC(=O)N1CCc2c(sc(NC(=O)CCc3ccccc3)c2C#N)C1 [Example 1, 3-Cyano-2-(3-phenyl-propanoylamino)-4,7-dihydro-5H-thieno[2,3-c]pyridine-6-carboxylic acid ethyl ester]	> 100	≤ 0.3
CCOC(=O)N1CCc2c(sc(NC(=O)C3CC3c3ccccc3)c2C#N)C1 (stereo not shown) [Example 2, 3-Cyano-2-{[1-(2-phenyl-cyclopropyl)-methanoyl]-amino}-4,7-dihydro-5H-thieno[2,3-c]pyridine-6-carboxylic acid ethyl ester]	> 100	≤ 0.3
CCOC(=O)N1CCc2c(sc(NC(=O)CCc3ccccc3C)c2C#N)C1 [Example 3, 3-Cyano-2-(3-o-tolyl-propanoylamino)-4,7-dihydro-5H-thieno[2,3-c]pyridine-6-carboxylic acid ethyl ester]	> 100	≤ 0.3
CCOC(=O)N1CCc2c(sc(NC(=O)CCc3ccco3)c2C#N)C1 [Example 5, 3-Cyano-2-(3-furan-2-yl-propanoylamino)-4,7-dihydro-5H-thieno[2,3-c]pyridine-6-carboxylic acid ethyl ester]	> 100	≤ 0.3
CCOC(=O)N1CCc2c(sc(NC(=O)C(C)Cc3ccccc3)c2C#N)C1 (stereo not shown) [Example 6, 3-Cyano-2-(2-methyl-3-phenyl-propanoylamino)-4,7-dihydro-5H-thieno[2,3-c]pyridine-6-carboxylic acid ethyl ester]	> 100	0.3 to 2
CCOC(=O)N1CCc2c(sc(NC(=O)CCc3cccs3)c2C#N)C1 [Example 7, 3-Cyano-2-(3-thiophen-2-yl-propanoylamino)-4,7-dihydro-5H-thieno[2,3-c]pyridine-6-carboxylic acid ethyl ester]	> 100	≤ 0.3
CCOC(=O)N1CCc2c(sc(NC(=O)CCc3ccc(F)cc3)c2C#N)C1 [Example 8, 3-Cyano-2-(3-(4-fluoro-phenyl)-propanoylamino)-4,7-dihydro-5H-thieno[2,3-c]pyridine-6-carboxylic acid ethyl ester]	> 100	≤ 0.3
CCOC(=O)N1CCc2c(sc(NC(=O)CCc3cccnc3)c2C#N)C1 [Example 9, 3-Cyano-2-(3-pyridin-3-yl-propanoylamino)-4,7-dihydro-5H-thieno[2,3-c]pyridine-6-carboxylic acid ethyl ester]	> 100	0.3 to 2
CCOC(=O)N1CCc2c(sc(NC(=O)CCc3ccccc3F)c2C#N)C1 [Example 10, 3-Cyano-2-(3-(2-fluoro-phenyl)-propanoylamino)-4,7-dihydro-5H-thieno[2,3-c]pyridine-6-carboxylic acid ethyl ester]	> 100	≤ 0.3
CCOC(=O)N1CCc2c(sc(NC(=O)CCc3cc(C)c(C)o3)c2C#N)C1 [Example 11, 3-Cyano-2-[3-(4,5-dimethyl-furan-2-yl)-propanoylamino]-4,7-dihydro-5H-thieno[2,3-c]pyridine-6-carboxylic acid ethyl ester]	> 100	≤ 0.3
CCOC(=O)N1CCc2c(sc(NC(=O)CCc3cccc(F)c3)c2C#N)C1 [Example 12, 3-Cyano-2-[3-(3-fluoro-phenyl)-propanoylamino]-4,7-dihydro-5H-thieno[2,3-c]pyridine-6-carboxylic acid ethyl ester]	> 100	≤ 0.3
CCOC(=O)N1CCc2c(sc(NC(=O)CCc3ccccc3Cl)c2C#N)C1 [Example 13, 2-[3-(2-Chloro-phenyl)-propanoylamino]-3-cyano-4,7-dihydro-5H-thieno[2,3-c]pyridine-6-carboxylic acid ethyl ester]	> 100	≤ 0.3

More lines, main results first:

IC50 [1] [µM]	Structure (SMILES)	IC50 [2] [µM]
> 100	CCOC(=O)N1CCc2c(sc(NC(=O)CC(C)c3cccnc3)c2C#N)C1 (racemic) [Example 49, 3-Cyano-2-((RS)-3-pyridin-3-yl-butanoylamino)-4,7-dihydro-5H-thieno[2,3-c]pyridine-6-carboxylic acid ethyl ester]	0.3 to 2
≥ 40	CC(CC(=O)Nc1sc2c(c1C#N)CCN(C(=O)OCCc1ccncc1)C2)c1cccnc1 (racemic) [Example 76, 3-Cyano-2-((RS)-3-pyridin-3-yl-butanoylamino)-4,7-dihydro-5H-thieno[2,3-c]pyridine-6-carboxylic acid 2-pyridin-4-yl-ethyl ester]	0.3 to 2
> 100	CC(CC(=O)Nc1sc2c(c1C#N)CCN(C(=O)OCCc1cccnc1)C2)c1ccccc1 (racemic) [Example 92, 3-Cyano-2-((RS)-3-phenyl-butanoylamino)-4,7-dihydro-5H-thieno[2,3-c]pyridine-6-carboxylic acid 2-pyridin-3-yl-ethyl ester]	≤ 0.3
> 100	CC(CC(=O)Nc1sc2c(c1C#N)CCN(C(=O)OCCn1ccnc1)C2)c1ccccc1 (racemic) [Example 96, 3-Cyano-2-((RS)-3-phenyl-butanoylamino)-4,7-dihydro-5H-thieno[2,3-c]pyridine-6-carboxylic acid 2-imidazol-1-yl-ethyl ester]	≤ 0.3
> 100	CCOC(=O)N1CCc2c(sc(NC(=O)CCc3ccc(C)cc3)c2C#N)C1 [Example 14, 3-Cyano-2-(3-p-tolyl-propanoylamino)-4,7-dihydro-5H-thieno[2,3-c]pyridine-6-carboxylic acid ethyl ester]	≤ 0.3
> 100	CC(C)(C)OC(=O)N1CCc2c(sc(NC(=O)CCc3cccnc3)c2C#N)C1 [Example 15, 3-Cyano-2-(3-pyridin-3-yl-propanoylamino)-4,7-dihydro-5H-thieno[2,3-c]pyridine-6-carboxylic acid tert-butyl ester]	≤ 0.3
> 100	CCOC(=O)N1CCc2c(sc(NC(=O)CCc3cccc(Cl)c3)c2C#N)C1 [Example 16, 2-[3-(3-Chloro-phenyl)-propanoylamino]-3-cyano-4,7-dihydro-5H-thieno[2,3-c]pyridine-6-carboxylic acid ethyl ester]	≤ 0.3
> 100	CCOC(=O)N1CCc2c(sc(NC(=O)CCc3ccc(Cl)cc3)c2C#N)C1 [Example 17, 2-[3-(4-Chloro-phenyl)-propanoylamino]-3-cyano-4,7-dihydro-5H-thieno[2,3-c]pyridine-6-carboxylic acid ethyl ester]	≤ 0.3
> 100	CCOC(=O)N1CCc2c(sc(NC(=O)CCc3cccc(C)c3)c2C#N)C1 [Example 18, 3-Cyano-2-(3-m-tolyl-propanoylamino)-4,7-dihydro-5H-thieno[2,3-c]pyridine-6-carboxylic acid ethyl ester]	≤ 0.3
> 100	CCOC(=O)N1CCc2c(sc(NC(=O)CCC3CCCCC3)c2C#N)C1 [Example 19, 3-Cyano-2-(3-cyclohexyl-propanoylamino)-4,7-dihydro-5H-thieno[2,3-c]pyridine-6-carboxylic acid ethyl ester]	0.3 to 2
